Here are results for three molecules from patent publication US20220117966A1, “METHOD OF TREATING FIBROSIS” (AstraZeneca AB, priority 2019, published 2022).

In data set [1] the test system is TGFβ-stimulated NHLF (normal human lung fibroblasts). In words: cells. The format is cell-based. As to conditions: for IC50: Homo sapiens, Fibroblast; for cell viability / cell death / inhibition of αSMA (FIG. 2): TGF-beta1-stimulated human lung fibroblasts. The procedure: Normal human lung fibroblasts from a healthy donor (passage 5) were seeded in 96-well culture plates with 50,000 cells per cm^2 in DMEM culture medium with 10% FBS and 1% penicillin-streptomycin. […]. The cells were incubated for one hour before 0.123 ng/ml TGF-beta1 was added on top of the compound/vehicle treatment and the cells were incubated for 24 hours.
After 24 hours the medium was collected and analysed for IL-6 and the cells were either lysed for RNA isolation, DNA-synthesis and TaqMan quantitative PCR or fixated and stained for alpha-smooth muscle actin (αSMA) and with Hoechst nuclear staining. The percentage of cells staining positive for αSMA and thereby displaying the myofibroblast phenotype was determined using high content image analysis. The Ct-values from the quantitative PCR were normalised against the geomean Ct values of two reference-genes and presented as fold-expression over those reference genes (2^-delta Ct).

Data set [2] deals with bleomycin (Bleo) induced lung injury and fibrosis. In words: Bleomycin model, lung hydroxyproline levels. The note with it: saracatinib 1, 3 or 10 mg/kg BID vs pirfenidone 200 mg/kg BID and nintedanib 30 mg/kg BID, from day 7, day 21. It counts as in vivo, mice. The procedure:
Bleomycin Sulfate was obtained from Sigma-Aldrich. The IU conversion to enzyme units (U) is approximately 1.5-2 U/mg. For delivery of 4 U/kg in 50 μL, a solution of […] was prepared in 0.9% NaCl. Bleomycin or vehicle was dosed on Day 0 intranasally. […] Body weights and clinical observations were recorded on days 7, 14, and 21. On day 21, mice were euthanized by cervical dislocation. One side of lung tissue was dissected and analyzed for hydroxyproline levels as an indicator of local collagen deposition, and the other side lung was fixed in Formalin for histopathology (Quantitative staining with sirius red).

In data set [3] the test system is human primary cell-based systems (BioMAP). In words: DiscoverX BioMAP Combo ELECT panel, relative protein expression. As to conditions: saracatinib 3.3 μM, relative to vehicle control. From the text:
BioMAP panels consist of human primary cell-based systems designed to model different aspects of the human body in an in vitro format. The 12 systems available in the Diversity PLUS panel allow test agent characterization in an unbiased way across a broad set of systems modelling various human disease states. BioMAP systems are constructed with one or more primary cell types from healthy human donors, with stimuli (such as cytokines or growth factors) added to capture relevant signalling networks that naturally occur in human tissue or pathological conditions. Systems recapitulate aspects of the systemic immune response including monocyte-driven Th1 inflammation (LPS system) or T cell stimulation (SAg system), chronic Th1 inflammation driven by macrophage activation (IMphg system) and the T cell-dependent activation of B cells that occurs in germinal centers (BT system). The BE3C system (Th1) and the BF4T system (Th2) represent airway inflammation of the lung, while the MyoF system models myofibroblast-lung tissue remodelling.
Each test agent generates a signature BioMAP profile that is created from the changes in protein biomarker readouts within individual system environments. Biomarker readouts (7-17 per system) are selected for therapeutic and biological relevance, are predictive for disease outcomes or specific drug effects and are validated using agents with known mechanism of action (MoA). Each readout is measured quantitatively by immune-based methods that detect protein (e.g., ELISA) or functional assays that measure proliferation and viability. BioMAP readouts are diverse and include cell surface receptors, cytokines, chemokines, matrix molecules and enzymes.
In the Combo ELECT panel, a 4×4 combination array is created to test all mixtures of two serially diluted single test agents/drugs.

A short description of data set [4]: Saracatinib AD Phase IIa (52 weeks), safety and tolerability. The format is in vivo, human. The note with it: Alzheimer's Disease patients.
Data set [5] deals with Airway basal cells (ABC) from IPF patients. In words: Organoid formation assay. The format is cell-based, human. The note with it: for organoid formation of airway basal cells (FIGS. 4, 5 and 6): saracatinib 8, 25, 75, 210 or 600 nM, pirfenidone 1 mM, nintedanib 1 μM. The procedure: Airway Basal Cells (ABCs) either derived from IPF patients or Healthy Volunteers (HV) were cultured in Matrigel® (Corning in a transwell system with or without lung fibroblasts either derived from patients with IPF or normal lung for up-to 35 days in the incubator (5% CO2, 37° C.)).

Another data set has as its target Lyn (Homo sapiens, UniProt P07948). As to conditions: cited from earlier work.
A short description of data set [6]: Pharmacokinetics (PK) of saracatinib in the bleomycin model. The note with it: mouse, mice; for Cmax: Day 21, dosed 1 hour prior to terminal blood draw; for concentration at 21 day: Day 21, not dosed before blood draw, read-out: Cmin +/− SD. It counts as in vivo.
The conditions of data set [7]: cited from earlier work.
The conditions of data set [8]: IPF patients, cited from earlier work.
The conditions of data set [9]: IPF patients; cited from earlier work.
The mark [10] stands for this setting: 24 h, read-out: Mean IC50 ACTA2 mRNA.
Setting [11] is: 24 h, read-out: Mean IC50 COL1A1 mRNA.
Setting [12] is: 24 h, read-out: Mean IC50 COL3A1 mRNA.
Where [13] appears, read: 24 h, read-out: Mean IC50 FN1 mRNA.
Setting [14] is: 24 h, read-out: Mean IC50 IL-6 protein.
Where [15] appears, read: 100 mg or 125 mg per day, 52 weeks, n = 79.

The structures appear in SMILES notation. Read-outs that look alike come from different tables or passages of the source.

Lyn, sequence (P07948 whole entry): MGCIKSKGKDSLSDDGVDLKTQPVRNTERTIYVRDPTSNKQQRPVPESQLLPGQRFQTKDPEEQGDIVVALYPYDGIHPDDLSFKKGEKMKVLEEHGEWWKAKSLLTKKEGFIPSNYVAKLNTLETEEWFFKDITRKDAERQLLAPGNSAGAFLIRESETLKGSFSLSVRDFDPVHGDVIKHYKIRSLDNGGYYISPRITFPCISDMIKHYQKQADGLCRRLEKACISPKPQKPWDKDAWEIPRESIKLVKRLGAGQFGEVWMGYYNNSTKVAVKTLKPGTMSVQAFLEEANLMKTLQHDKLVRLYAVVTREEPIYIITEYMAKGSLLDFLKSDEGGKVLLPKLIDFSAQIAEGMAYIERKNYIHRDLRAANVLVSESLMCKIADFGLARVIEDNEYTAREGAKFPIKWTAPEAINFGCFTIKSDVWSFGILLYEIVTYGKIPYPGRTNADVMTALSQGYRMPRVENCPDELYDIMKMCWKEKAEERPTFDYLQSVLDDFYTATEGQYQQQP

Turning to `CN1CCN(CCOc2cc(OC3CCOCC3)c3c(Nc4c(Cl)ccc5c4OCO5)ncnc3c2)CC1` [Saracatinib, N-(5-chlorobenzo[d][1,3]dioxol-4-yl)-7-(2-(4-methylpiperazin-1-yl)ethoxy)-5-((tetrahydro-2H-pyran-4-yl)oxy)quinazolin-4-amine], the IC50 in data set [1] (setting [10]) was found to be 186 nM. Moreover, in data set [1] (setting [11]), the half-inhibitory concentration (IC50) came out at 1010 nM. Also, the IC50 in data set [1] (setting [12]) is 7990 nM. Further, the IC50 in data set [1] (setting [13]) came to 526 nM. The IC50 in data set [1] (setting [14]) amounted to 128 nM. Besides, in [1] (24 h, read-out: Mean IC50 αSMA), the IC50 amounted to 185 nM. For the same molecule, in data set [1], the “cell viability / cell death” value is “without impacting cell viability” and the “inhibition of αSMA (FIG. 2)” value is given as “dose-dependent inhibition of αSMA”. Further, the “hydroxyproline levels after bleomycin induced lung injury and fibrosis (FIG. 1)” value in [2] was “compares favourably to pirfenidone (at much lower doses) and is potentially superior to nintedanib at clinically relevant doses”. For the same molecule, in [3], the “expression of MMP-9 (FIG. 7)” value is “decreased expression”, the “expression of N-cadherin (FIG. 7)” value was “decreased expression”, the “expression of TIMP-1 (FIG. 7)” value was “decreased expression” and the “expression of VCAM-1 (FIG. 7)” value is listed as “increased expression”. In addition, in data set [3], the “expression of a-SMA (FIG. 7)” value is “increased expression”, the “expression of sIL-6 (FIG. 7)” value is given as “decreased expression”, the “expression of sIL-8 (FIG. 7)” value was “decreased expression” and the “expression of sVEGF (FIG. 7)” value is given as “decreased expression”. Further, in data set [4], the “Treatment Discontinuations, clinical studies AD” value was 8.2% (1.2%). In data set [4] (setting [15]), the Anorexia stood at 3%, the “Decreased Appetite” value is 9%, the Diarrhea is listed as 27.8% and the Nausea is given as 12.7%. In data set [4] (setting [15]), the Vomiting was determined as 5.1% and the “Weight Decrease” value was 10%. Also, in [5] (ABC organoids, saracatinib 8 to 600 nM), the cytotoxicity result was “non-cytotoxic”. Moreover, the “organoid formation of airway basal cells (FIGS. 4, 5 and 6)” value (“organoid formation of airway basal cells” for short) in [5] is “differentiated and uniquely efficacious”. Besides, at Lyn, the IC50 was 5 nM. Moreover, in [6] (1 mg/kg BID oral gavage), the Cmax was 71.5 nM and the concentration at 21 day came to 2.52 nM. Besides, in [6] (3 mg/kg BID oral gavage), the Cmax was 139 nM and the concentration at 21 day was 8.41 nM. In addition, in [6] (10 mg/kg BID oral gavage), the Cmax amounted to 390 nM and the concentration at 21 day worked out at 31.8 nM.

As for `Cc1ccc(=O)n(-c2ccccc2)c1` [Pirfenidone], in [1] (TGFβ-stimulated NHLF, healthy donor 197 (n = 3), 24 hours, read-out: Mean IC50 ACTA2 mRNA), the IC50 was > 10000 nM. Further, the IC50 in data set [1] (TGFβ-stimulated NHLF, healthy donor 197 (n = 3), 24 hours, read-out: Mean IC50 COL1A1 mRNA) is > 10000 nM. In data set [1] (TGFβ-stimulated NHLF, healthy donor 197 (n = 3), 24 hours, read-out: Mean IC50 COL3A1 mRNA), the concentration for half-maximal inhibition (IC50) was > 10000 nM. Also, in data set [1] (TGFβ-stimulated NHLF, healthy donor 197 (n = 3), 24 hours, read-out: Mean IC50 FN1 mRNA), the IC50 was > 10000 nM. For the same molecule, the half-maximal inhibitory concentration (IC50) in data set [1] (TGFβ-stimulated NHLF, healthy donor 197 (n = 3), 24 hours, read-out: Mean IC50 IL-6 protein) is > 10000 nM. Besides, in [1] (TGFβ-stimulated NHLF, healthy donor 197 (n = 3), 24 hours, read-out: Mean IC50 αSMA), the IC50 is > 10000 nM. Further, in data set [1], the “cell viability / cell death” value is reported as “some evidence of cell death” and the “inhibition of αSMA (FIG. 2)” value is “inhibited αSMA, but at supra-therapeutic concentrations”. The “Treatment Discontinuations, Real-World data” value in data set [7] is 20.9%. Also, in data set [8] (52 weeks, n = 623), the Anorexia is listed as 13%, the Diarrhea is recorded as 24.6%, the Nausea is listed as 35.5% and the Vomiting is 12.7%. Further, the “Weight Decrease” value in data set [8] (52 weeks, n = 623) is given as 10%. Further, the “Decreased Appetite” value in [8] (Pirfenidone Medical Review, pirfenidone n = 345) is given as 9%^3. Besides, the “Treatment Discontinuations, clinical studies IPF” value in [8] is given as 14.6% (9.6%). In addition, in [5], the “organoid formation of airway basal cells” value is given as “little to no effect”.

In the case of `COC(=O)c1ccc2c(c1)NC(=O)/C2=C(\Nc1ccc(N(C)C(=O)CN2CCN(C)CC2)cc1)c1ccccc1` [Nintedanib], the IC50 in [1] (setting [10]) came to 1750 nM; in [1] (setting [11]) it was 536 nM; in data set [1] (setting [12]), 725 nM; in data set [1] (setting [13]), 624 nM; in data set [1] (setting [14]), 311 nM; in [1] (24 h, read-out: Mean IC50 αSMA), 601 nM. Also, the “cell viability / cell death” value in [1] is “some evidence of cell death”. Besides, the “inhibition of αSMA (FIG. 2)” value in data set [1] is “inhibited αSMA, but at supra-therapeutic concentrations”. The “Treatment Discontinuations, Real-World data” value in data set [7] is on record as 26.3%. The “organoid formation of airway basal cells” value in data set [5] is reported as “little to no effect”. Also, the “Treatment Discontinuations, clinical studies IPF” value in data set [9] is reported as 21% (15%).
